Measured values: patent US20250188102A1, “TRIAZINE COMPOUND, INTERMEDIATE THEREOF, PREPARATION METHOD THEREFOR AND USE THEREOF” (priority 2022, published 2025)
Read-outs that look alike come from different tables or passages of the source.

How the values were obtained:
[1] = system: SARS-CoV-2; conditions: read-out: viral inhibitory activity EC50, cited from earlier work
[2] = in vitro; assay type: in vitro ADME, people; conditions: human, hepatocytes
[3] = in vitro; assay type: in vitro ADME; conditions: rat, hepatocytes
[4] = target: NL63 Mpro protease (Human coronavirus NL63 (HCoV-NL63), UniProt P0C6X5); experiment: Mpro enzymatic assay, other human coronaviruses: NL63; assay type: biochemical; conditions: read-out: Enzymatic Determination of IC50 of compound by Mpro, NL63
Chain of NL63 Mpro protease (P0C6X5 2940-3242 limits assumed): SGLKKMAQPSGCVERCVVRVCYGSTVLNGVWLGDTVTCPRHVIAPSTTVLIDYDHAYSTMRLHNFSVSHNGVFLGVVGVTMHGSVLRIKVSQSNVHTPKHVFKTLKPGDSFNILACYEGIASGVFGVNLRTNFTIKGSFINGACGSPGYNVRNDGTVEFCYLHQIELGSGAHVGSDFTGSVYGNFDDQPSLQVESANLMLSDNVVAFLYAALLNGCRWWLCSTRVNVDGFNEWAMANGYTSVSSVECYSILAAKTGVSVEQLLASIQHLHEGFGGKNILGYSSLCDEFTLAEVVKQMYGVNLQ

[5] = target: HKU1 Mpro protease (Human coronavirus HKU1 (isolate N1) (HCoV-HKU1), UniProt P0C6X2); assay type: biochemical; conditions: read-out: Enzymatic Determination of IC50 of compound by Mpro, HKU1
Chain of HKU1 Mpro protease (P0C6X2 3335-3637 limits assumed): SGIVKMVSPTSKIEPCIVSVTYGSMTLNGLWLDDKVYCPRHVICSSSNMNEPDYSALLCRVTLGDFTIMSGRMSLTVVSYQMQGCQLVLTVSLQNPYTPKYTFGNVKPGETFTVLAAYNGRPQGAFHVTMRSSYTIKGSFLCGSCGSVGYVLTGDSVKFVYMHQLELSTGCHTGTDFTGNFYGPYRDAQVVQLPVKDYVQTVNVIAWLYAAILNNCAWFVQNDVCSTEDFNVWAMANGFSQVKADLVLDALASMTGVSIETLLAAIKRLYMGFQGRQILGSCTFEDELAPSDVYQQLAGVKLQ

[6] = in vivo; conditions: male, Sprague-Dawley, rat; for AUC(0-inf): AUC0-∞; for half-life: T1/2
[7] = system: Huh7 cells
[8] = in vitro; assay type: cell-based; conditions: human
Protocol: (§1) Nine cell lines originated from different human tissues (Table 2) are selected to evaluate the cytotoxicity of the tested compounds. Sorafenib or Taxol are used as cytotoxic control compounds. The cells and compounds are added to the 96-well test plate. Cells are cultured in culture medium containing 10% FBS, 5% CO2 and 37° C. for 3 days, and then cell viability was detected by CellTiter-Glo reagent. The raw data are used for compound cytotoxicity calculations. The dose-response curves of the compounds are analyzed by GraphPad Prism software and CC50 values are calculated. The compound will be tested at 8 concentration points, 3-fold series dilution, and 3-compound pores.

[9] = in vitro; conditions: human
[10] = in vitro; assay type: cell-based; conditions: human; remark: listed apart in the source
Protocol: as §1

[11] = in vitro; assay type: cell-based; conditions: human; remark: listed apart in the source
Protocol: as §1

[12] = in vitro; assay type: cell-based; conditions: human; remark: listed apart in the source
Protocol: as §1

[13] = in vitro; assay type: cell-based; conditions: human; remark: listed apart in the source
Protocol: as §1

[14] = in vitro; assay type: cell-based; conditions: human; remark: listed apart in the source
Protocol: as §1

[15] = in vitro; assay type: cell-based; conditions: human; remark: listed apart in the source
Protocol: as §1

[16] = system: HepG2 cells
[17] = system: SARS-CoV-2 strain; experiment: microbe, parasite or virus in culture; conditions: Severe acute respiratory syndrome coronavirus 2, read-out: EC50 of SARS-CoV-2 strain
[18] = in vitro; assay type: cell-based; conditions: human; remark: listed apart in the source
Protocol: as §1

[19] = in vitro; assay type: cell-based; conditions: human; remark: listed apart in the source
Protocol: as §1

[20] = target: MERS Mpro protease (Middle East respiratory syndrome-related coronavirus (isolate United Kingdom/H123990006/2012) (MERS-CoV) (Betacoronavirus England 1), UniProt K9N7C7); experiment: biochemical
Chain of MERS Mpro protease (K9N7C7 3248-3553 limits assumed): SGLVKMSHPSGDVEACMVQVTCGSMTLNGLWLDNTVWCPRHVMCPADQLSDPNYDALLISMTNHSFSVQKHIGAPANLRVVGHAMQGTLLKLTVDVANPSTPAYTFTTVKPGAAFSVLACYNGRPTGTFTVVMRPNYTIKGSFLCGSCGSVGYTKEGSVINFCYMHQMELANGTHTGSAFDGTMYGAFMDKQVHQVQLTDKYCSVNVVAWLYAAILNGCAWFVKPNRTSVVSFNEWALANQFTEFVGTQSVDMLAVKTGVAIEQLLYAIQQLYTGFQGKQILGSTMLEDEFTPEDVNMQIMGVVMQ

[21] = liver microsomes; rat
[22] = in vitro; conditions: rat, microsomes
[23] = rat, stated before the oral figures (intravenous per Table 11)
[24] = CCRF-CEM, 3 days, read-out: CC50
[25] = Colo-205, 3 days, read-out: CC50

SMILES: CC(C)(C)[C@H](NC(=O)C(F)(F)F)C(=O)N1C[C@H]2[C@@H]([C@H]1C(=O)N[C@H](C#N)C[C@@H]1CCNC1=O)C2(C)C [PF-07321332]
- EC50 ([1]; A549 cells expressing ACE2 protein): 0.056 µM
- EC50 ([1]; HeLa cells expressing ACE2 protein): 0.099 µM
- EC50 ([1]; human airway epithelial cells): 0.062 µM

SMILES: [2H]C([2H])(c1ncn(C)n1)n1c(=O)nc(Nc2cc3cn(C)nc3cc2Cl)n(Cc2cc(F)c(F)cc2F)c1=O [Compound I-3]
- half-life at 0.5 μM [2]: 204 h
- half-life at 0.5 μM [3]: 8.28 h

SMILES: CC(C)C[C@H](NC(=O)OCc1ccccc1)C(=O)N[C@@H](CC1CCNC1=O)C(O)S(=O)(=O)O (some centres unmarked) [GC-376]
- IC50 [4]: 0.107 µM
- IC50 [5]: 0.022 µM

SMILES: [2H]C([2H])([2H])n1cnc(Cn2c(=O)[nH]/c(=N\c3cc4cn(C)nc4cc3Cl)n(Cc3cc(F)c(F)cc3F)c2=O)n1 [Compound I-2]
- AUC(0-inf) ([6]; iv, 0.5 mg/kg, SD rat): 7940 ng·h/mL
- Cmax ([6]; iv, 0.5 mg/kg, SD rat): 2880 ng/mL
- half-life ([6]; iv, 0.5 mg/kg): 3.36 h
- Tmax ([6]; iv, 0.5 mg/kg, SD rat): 0.03 h
- AUC(0-inf) ([6]; po, 5 mg/kg, SD rat): 65300 ng·h/mL
- Cmax ([6]; po, 5 mg/kg, SD rat): 6020 ng/mL
- half-life ([6]; po, 5 mg/kg): 3.04 h
- Tmax ([6]; po, 5 mg/kg, SD rat): 2.33 h
- AUC compared with S-217622 (rat, after oral administration): 144%
- Cmax compared with S-217622 (rat, after oral administration): 145%
- AUC compared with S-217622 [23]: 198%
- Cmax compared with S-217622 [23]: 125%
- T1/2 compared with S-217622 [23]: 124%
- half-life at 0.5 μM [3]: 89 h

SMILES: CCC(CC)COC(=O)[C@H](C)N[P@](=O)(OC[C@H]1O[C@@](C#N)(c2ccc3c(N)ncnn23)[C@H](O)[C@@H]1O)Oc1ccccc1 [Remdesivir]
- CC50 [7]: >1 microns

SMILES: O=C(O)/C=C/C(=O)O.[2H]C([2H])([2H])n1cnc(Cn2c(=O)[nH]/c(=N\c3cc4cn(C)nc4cc3Cl)n(Cc3cc(F)c(F)cc3F)c2=O)n1 [SHEN211]
- CC50 ([8]; HEK293, 3 days, read-out: CC50): > 100 µM
- CC50 ([9]; galactose culture HepG2 CC50): 206 µM
- CC50 ([9]; glucose culture HepG2 CC50): 202 µM
- CC50 ([10]; HIHeLa, 3 days, read-out: CC50): > 100 µM
- CC50 ([11]; MRC-5, 3 days, read-out: CC50): > 100 µM
- CC50 [12, 24]: > 100 µM
- CC50 ([13]; HepG2, 3 days, read-out: CC50): > 100 µM
- CC50 ([14]; Molt-4, 3 days, read-out: CC50): > 100 µM
- CC50 ([15]; HEp2, 3 days, read-out: CC50): > 100 µM
- mitochondrial toxicity to human HepG2 cells [16]: more than 200 μM
- difference between the CC50 and EC50 ([16]; human): more than 476 times
- CC50 [7]: >1 microns
- EC50 [17]: 0.084 to 0.21 µM
- CC50 ([18]; A375, 3 days, read-out: CC50): > 100 µM
- AUC(0-inf) ([6]; po, 5 mg/kg, SD rat): 45500 ng·h/mL
- Cmax ([6]; po, 5 mg/kg, SD rat): 4710 ng/mL
- half-life ([6]; po, 5 mg/kg): 3.22 h
- Tmax ([6]; po, 5 mg/kg, SD rat): 2 h
- CC50 [19, 25]: > 100 µM

SMILES: [2H]C([2H])([2H])n1cnc(Cn2c(=O)[nH]/c(=N\c3cc4cn(C)nc4cc3Cl)n(Cc3cc(F)c(F)cc3F)c2=O)n1 [SHEN212]
- AUC0-∞ (SD rat, PO, 5.0 mg/kg): 62126.14 ng·h/mL
- Tmax (SD rat, PO, 5.0 mg/kg): 3.67 h
- AUC compared with S-217 fumaric acid eutectic group (rat, PO): 115%
- AUC compared with S-217622 fumaric acid coproduct combined with niacinamide group (rat, PO): 124%
- Cmax compared with S-217 fumaric acid eutectic group (rat, PO): 132%
- Cmax compared with S-217622 fumaric acid coproduct combined with niacinamide group (rat, PO): 123%
- T1/2 compared with S-217622 fumaric acid coproduct combined with niacinamide group (rat, PO): 121%

SMILES: O=c1nc(NO)ccn1[C@@H]1O[C@H](CO)[C@@H](O)[C@H]1O [EIDD-1931]
- CC50 [7]: >10 microns

SMILES: Cn1cnc(Cn2c(=O)[nH]/c(=N\c3cc4nn(C)cc4cc3Cl)n(Cc3cc(F)c(F)cc3F)c2=O)n1 [CVL201]
- CC50 [8]: > 100 µM
- CC50 [10]: > 100 µM
- IC50 [20]: 4960 µM
- CC50 [11]: > 100 µM
- CC50 [12]: > 100 µM
- CC50 [13]: > 100 µM
- CC50 [14]: > 100 µM
- CC50 [15]: > 100 µM
- CC50 [7]: >1 microns
- CC50 [18]: > 100 µM
- AUC(0-inf) ([6]; po, 5 mg/kg): 53900 ng·h/mL
- Cmax ([6]; po, 5 mg/kg): 4520 ng/mL
- half-life ([6]; po, 5 mg/kg): 2.89 h
- Tmax ([6]; po, 5 mg/kg): 4.67 h
- CC50 [19]: > 100 µM

SMILES: [2H]C([2H])([2H])n1cnc(Cn2c(=O)nc(Nc3cc4cn(C([2H])([2H])[2H])nc4cc3Cl)n(Cc3cc(F)c(F)cc3F)c2=O)n1 [Compound I-24]
- AUC(0-inf) ([6]; po, 5 mg/kg, SD rat): 58300 ng·h/mL
- Cmax ([6]; po, 5 mg/kg, SD rat): 5210 ng/mL
- half-life ([6]; po, 5 mg/kg): 3.51 h
- Tmax ([6]; po, 5 mg/kg, SD rat): 4 h

SMILES: C[C@]12CC[C@H]3[C@@H](CCC4=CC(=O)CC[C@@]43C)[C@@H]1CC[C@@H]2O [Testosterone]
- Cl [21]: 3.28 L/h/kg
- Cla [21]: 6112.8 µL/min/mg
- Clape [21]: 660.186 L/h/kg
- half-life [22]: 36 s

SMILES: [2H]C([2H])([2H])n1cc2cc(Nc3nc(=O)n(Cc4ncn(C)n4)c(=O)n3Cc3cc(F)c(F)cc3F)c(Cl)cc2n1 [Compound I-5]
- half-life at 0.5 μM [2]: 29.9 h

SMILES: CNC(=O)c1cc(Oc2ccc(NC(=O)Nc3ccc(Cl)c(C(F)(F)F)c3)cc2)ccn1 [Sorafenib]
- CC50 ([8]; HEK293, 3 days, read-out: CC50): 5.58 µM
- CC50 ([11]; MRC-5, 3 days, read-out: CC50): 13.8 µM
- CC50 ([13]; HepG2, 3 days, read-out: CC50): 5.32 µM
- CC50 [19, 25]: 8.72 µM

SMILES: CC(=O)O[C@H]1C(=O)[C@@]2(C)[C@H]([C@H](OC(=O)c3ccccc3)[C@]3(O)C[C@H](OC(=O)[C@H](O)[C@@H](NC(=O)c4ccccc4)c4ccccc4)C(C)=C1C3(C)C)[C@]1(OC(C)=O)CO[C@@H]1C[C@@H]2O [Pacitaxel]
- CC50 ([10]; HIHeLa, 3 days, read-out: CC50): 0.02 µM
- CC50 [12, 24]: 0.0034 µM
- CC50 ([14]; Molt-4, 3 days, read-out: CC50): 0.0027 µM
- CC50 ([15]; HEp2, 3 days, read-out: CC50): 0.03 µM
- CC50 ([18]; A375, 3 days, read-out: CC50): 0.0089 µM

SMILES: C=C(C)[C@H]1Cc2c(ccc3c2O[C@@H]2COc4cc(OC)c(OC)cc4[C@@H]2C3=O)O1 [Rotenone, reference compound]
- CC50 ([9]; galactose culture HepG2 CC50): 0.03 µM
- CC50 ([9]; glucose culture HepG2 CC50): 2.33 µM
- ratio (CC50 Glu/CC50 Gal) ([16]; human): 91.7

SMILES: [2H]C([2H])([2H])n1cnc(Cn2c(=O)n(COC(=O)OC(C)C)/c(=N\c3cc4cn(C)nc4cc3Cl)n(Cc3cc(F)c(F)cc3F)c2=O)n1 [Compound I-19]
- AUC(0-inf) ([6]; po, 5 mg/kg, SD rat): 70900 ng·h/mL
- Cmax ([6]; po, 5 mg/kg, SD rat): 6180 ng/mL
- half-life ([6]; po, 5 mg/kg): 2.91 h
- Tmax ([6]; po, 5 mg/kg, SD rat): 3.33 h
